For experiment [1], the system named is muscle stem cells (MuSCs). As to the kind of experiment: MuSC proliferation in culture, cell number count (hemocytometer). Format: cell-based, mouse. Conditions: ONO-AE3-208 1 μM with PGE2 10 ng/ml, 24 hr treatment. As for the experimental part: (§1) Muscle stem cell culture, treatment and lentiviral infection: Following isolation, we resuspended MuSCs in myogenic cell culture medium containing DMEM/F10 (50:50), 15% FBS, 2.5 ng ml^−1 fibroblast growth factor-2 (FGF-2 also known as bFGF) and 1% penicillin-streptomycin. We seeded MuSC suspensions at a density of 500 cells per cm^2 surface area. We maintained cell cultures at 37° C. in 5% CO2 and changed medium daily. For PGE2, 15-PGDH inhibitor and EP4 receptor antagonist treatment studies, we added 1-200 ng/ml Prostaglandin E2 (Cayman Chemical) (unless specified in the figure legends, 10 ng/ml was the standard concentration used), and/or 1 μM EP4 antagonist (ONO-AE3-208, Cayman Chemical), or 1 μM 15-PGDH inhibitor (SW033291, Cayman Chemical) to the MuSCs cultured on collagen coated dishes for the first 24 h. The cells were then trypsinized and cells reseeded onto hydrogels for an additional 6 days of culture. All treatments were compared to their solvent (DMSO) vehicle control. For stripped serum assays, we resuspended isolated MuSCs in medium containing DMEM/F10 (50:50), 15% charcoal stripped FBS (Gibco, cat #12676011), 2.5 ng ml^−1 bFGF and 1% penicillin-streptomycin. […]
Proliferation assays: To assay proliferation, we used three different assays (hemocytometer, VisionBlue, and EdU). […] For hemocytometer cell number count, we collected cells at indicated timepoints by incubation with 0.5% trypsin in PBS for 5 min at 37° C. and quantified them using a hemocytometer at least 3 times. Additionally, we used the VisionBlue Quick Cell Viability Fluorometric Assay Kit (BioVision, catalog #K303) as a readout for cell growth in culture. Briefly, we incubated MuSCs with 10% VisionBlue in culture medium for 3 h, and measured fluorescence intensity on a fluorescence plate reader (Infinite M1000 PRO, Tecan) at Ex=530-570 nm, Em=590-620 nm. […] We quantified EdU positive cells using the MetaMorph Image Analysis software (Molecular Devices). Data analyses were blinded, where researchers performing cell scoring were unaware of the treatment condition given to sample groups analyzed. […]

In experiment [2] the test system is PGE2 levels of conditioned medium from isolated fibers. Description: PGE2 ELISA of conditioned medium from isolated fibers. Format: cell-based, mouse. Conditions: indomethacin 1 μM, 24 hours. The protocol: For conditioned medium assays, muscle fibers from the extensor digitorum longus (EDL) were isolated as previously described (53). Fibers were cultured in stripped serum medium in the presence or absence of indomethacin (1 μM, Sigma) for 24 hours. Conditioned medium was collected and measured using the PGE2 ELISA Kit (R&D Systems, catalog #KGE004B) and expressed relative to the collected volume (ml). Each sample was assayed in triplicate and in two independent experiments. […]

Another experiment relates to TA muscle. Description: In vivo muscle force at day 14 post-injury (TA). On the set-up: species or system mouse. The protocol: We used an injury model entailing intramuscular injection of 10 μl of notexin (10 μg ml^−1; Latoxan, catalog #L8104) or cardiotoxin (10 μM; Latoxan, catalog #L8102) into the Tibialis anterior (TA) muscle. For cryoinjury, an incision was made in the skin overlying the TA muscle and a copper probe, chilled in liquid nitrogen, was applied to the TA muscle for three 10 s intervals, allowing the muscle to thaw between each application of the cryoprobe. When indicated, 48 hr after injury either 16,16-Dimethyl Prostaglandin E2 (dmPGE2) (13 nmol, Tocris, catalog #4027), Indomethacin (35 μg, Sigma, catalog #17378) or vehicle control (PBS) was injected into the TA muscle. The contralateral TA was used as an internal control, except for the force measurement experiments where each mouse had both legs injured with the same condition and independent mice were used for each condition.
Mice were injured as described in the Muscle injury section. […] Data were collected with a PCI-6251 acquisition card (National Instruments) and analyzed in Matlab. We calculated specific force values by normalizing the force measurements by the muscle physiological cross-sectional areas (PCSAs), which were similar between groups. PCSA (measured in mm^2) was calculated according to the following equation (55): PCSA (mm^2)=[mass (g)×Cos θ]÷[ρ (g/mm^3)×fiber length (mm)], […]

Experiment [3] relates to endogenous MuSCs in TA muscle. Description: Endogenous MuSC BLI in Pax7CreERT2;Rosa26-LSL-Luc mice after cardiotoxin injury. As to conditions: single indomethacin injection three days post-cardiotoxin injury. In kind it is in vivo, mouse. As for the experimental part: Bioluminescence imaging: We performed bioluminescence imaging (BLI) using a Xenogen-100 system, as previously described^1,5,6. Briefly, we anesthetized mice using isofluorane inhalation and administered 120 μL D-luciferin (0.1 mmol kg^−1, reconstituted in PBS; Caliper LifeSciences) by intraperitoneal injection. We acquired BLI using a 60 s exposure at F-stop=1.0 at 5 minutes after luciferin injection. Digital images were recorded and analyzed using Living Image software (Caliper LifeSciences). We analyzed images with a consistent region-of-interest (ROI) placed over each hindlimb to calculate a bioluminescence signal. We calculated a bioluminescence signal in radiance (p s^−1 cm^−2 sr^−1) value of 10^4 to define an engraftment threshold. This radiance threshold of 10^4 is approximately equivalent to the total flux threshold in p/s reported previously. This BLI threshold corresponds to the histological detection of one or more GFP+ myofibers^1,5,6. We performed BLI imaging every week after transplantation. […]
We performed bioluminescence imaging (BLI) using a Xenogen-100 system, as previously described (24, 26, 27, 30). […] Digital images were recorded and analyzed using Living Image software (Caliper LifeSciences). We analyzed images with a consistent region-of-interest (ROI) placed over each hindlimb to calculate a bioluminescence signal. We calculated a bioluminescence signal in radiance (p s^−1 cm^−2 sr^−1) value of 10^4 to define an engraftment threshold. […]
Bioluminescent Imaging: For bioluminescence imaging (BLI), we anesthetized mice using isofluorane inhalation and administered 120 μL D-luciferin (0.1 mmol kg^−1, reconstituted in PBS; Caliper LifeSciences) by intraperitoneal injection. […] Digital images were recorded and analyzed using Living Image software (Caliper LifeSciences). We analyzed images with a consistent region-of-interest (ROI) placed over each hindlimb to calculate a bioluminescence signal. We calculated a bioluminescence signal in radiance (p s^−1 cm^−2 sr^−1) value of 10^4 to define an engraftment threshold. […]

The next experiment deals with aged MuSCs. Description: Aged MuSC proliferation in culture. In kind it is cell-based, mouse. Conditions: PGE2 10 ng/ml or SW033291 1 μM, 24 hr, assayed at day 7. The protocol: as §1
Proliferation assays: To assay proliferation, we used three different assays (hemocytometer, VisionBlue, and EdU). […] For hemocytometer cell number count, we collected cells at indicated timepoints by incubation with 0.5% trypsin in PBS for 5 min at 37° C. and quantified them using a hemocytometer at least 3 times. Additionally, we used the VisionBlue Quick Cell Viability Fluorometric Assay Kit (BioVision, catalog #K303) as a readout for cell growth in culture. Briefly, we incubated MuSCs with 10% VisionBlue in culture medium for 3 h, and measured fluorescence intensity on a fluorescence plate reader (Infinite M1000 PRO, Tecan) at Ex=530-570 nm, Em=590-620 nm. […] We quantified EdU positive cells using the MetaMorph Image Analysis software (Molecular Devices). Data analyses were blinded, where researchers performing cell scoring were unaware of the treatment condition given to sample groups analyzed.

“Also recorded” adds a separate entry of the source.

Consider `CC(C(=O)Nc1cc(C#N)ccc1CCCC(=O)O)c1ccc(F)c2ccccc12` (stereo not drawn) [ONO-AE3-208], for which, in experiment [1], the “proliferation induced by PGE2 in the presence of EP4 antagonist” value is listed as “blunted”.

For the molecule `COc1ccc2c(c1)c(CC(=O)O)c(C)n2C(=O)c1ccc(Cl)cc1` [indomethacin], the “PGE2 synthesis by isolated myofibers” value in experiment [2] is given as “markedly reduced”. In the experiment on TA muscle (NSAID (indomethacin) treatment, day 14 post-cardiotoxin), the “reduction in twitch force compared to controls” value was found to be 33±7%. In the experiment on TA muscle (indomethacin into cardiotoxin-injured muscles, day 14 post-injury), the “Twitch force vs control group” value is on record as “significant loss in Twitch force”. For the same molecule, in experiment [3], the “luciferase activity (BLI) of endogenous MuSCs after indomethacin” value is reported as “significant decrease in luciferase activity; also recorded: decline in BLI relative to controls”.

On to `CCCC[S+]([O-])c1sc2nc(-c3cccs3)cc(-c3ccccc3)c2c1N` (stereo not drawn) [SW033291], for which the “aged MuSC proliferation and Pax7 expression after 1-day pulse” value in the experiment on aged MuSCs was “characteristic increase in proliferation and maintenance of Pax7 expression”.
